Earlier results, collected in patent US9402854B2, “Pharmaceutical composition” (Cipla Limited, priority 2012, dated 2016).

Details: versus racemic formoterol (contains both (S,S) and (R,R) enantiomers)

COc1ccc(C[C@@H](C)NC[C@H](O)c2ccc(O)c(NC=O)c2)cc1 [Arformoterol]
potency relative to racemic formoterol: two-fold greater potency
